Test results taken from ChEMBL document CHEMBL1221181, “Virtual and biomolecular screening converge on a selective agonist for GPR30” (Nat Chem Biol, 2006).
Calls of active or inactive are those of the source. The calls are words filed in the database; no cut-off is given here.

Columns and labels:
[1] = target: Estrogen receptor beta (Homo sapiens) (UniProt Q92731); assay: Agonist activity at GFP-tagged ERbeta expressed in COS7 cells assessed as PI3K activation at 10 nM by PIP3 nuclear accumulation assay; type: functional, cell-based; details: COS-7
[2] = target: Estrogen receptor beta (Homo sapiens) (UniProt Q92731); assay: Displacement of E2-Alexa633 from GFP-tagged ERbeta expressed in COS7 cells at 1 uM by FACS; type: cell-based; details: COS-7

Sequence of Estrogen receptor beta (Homo sapiens) (Q92731 whole entry): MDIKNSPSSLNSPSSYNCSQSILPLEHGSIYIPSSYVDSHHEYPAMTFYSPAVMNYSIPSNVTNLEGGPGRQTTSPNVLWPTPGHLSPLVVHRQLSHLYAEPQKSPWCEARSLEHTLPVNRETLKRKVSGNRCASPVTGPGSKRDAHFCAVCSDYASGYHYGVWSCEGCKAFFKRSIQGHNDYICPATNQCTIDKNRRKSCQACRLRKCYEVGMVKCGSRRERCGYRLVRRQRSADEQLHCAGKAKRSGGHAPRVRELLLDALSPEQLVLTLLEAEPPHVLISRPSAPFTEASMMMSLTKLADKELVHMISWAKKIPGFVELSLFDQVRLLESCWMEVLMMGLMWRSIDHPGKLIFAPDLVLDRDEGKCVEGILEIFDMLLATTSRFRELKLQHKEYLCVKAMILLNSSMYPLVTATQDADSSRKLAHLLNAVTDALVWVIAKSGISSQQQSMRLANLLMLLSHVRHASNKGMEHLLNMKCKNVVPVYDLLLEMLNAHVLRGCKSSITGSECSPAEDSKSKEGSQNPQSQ

Activity [1]: inactive | Activity [2]: inactive
Structure (SMILES): CC(=O)c1ccc2c(c1)[C@@H]1C=CC[C@@H]1[C@H](c1cc3c(cc1Br)OCO3)N2
